“And” between values parts separate entries of the source, which are not always exact repeats. Equal entries are not always repeated. Numbers after ± are expanded uncertainties.
Conditions: Calculated from knudsen effusion weight loss

Row | SMILES | vapor or sublimation pressure (321.79 K, Crystal) | vapor or sublimation pressure (328.88 K, Crystal) | vapor or sublimation pressure (337.2 K, Crystal) | vapor or sublimation pressure (345.77 K, Crystal) | vapor or sublimation pressure (352.86 K, Crystal) | vapor or sublimation pressure (360.64 K, Crystal) | vapor or sublimation pressure (295.73 K, Crystal 2) | vapor or sublimation pressure (302.13 K, Crystal 2) | vapor or sublimation pressure (307.66 K, Crystal 2) | vapor or sublimation pressure (313.1 K, Crystal 2) | vapor or sublimation pressure (318.47 K, Crystal 2) | vapor or sublimation pressure (323 K, Crystal 2) | vapor or sublimation pressure (328.2 K, Crystal 2) | vapor or sublimation pressure (332.95 K, Crystal 2)
1 | c1ccc2cc3ccccc3cc2c1 [anthracene] | 1.7e-05 ± 1e-06 kPa and 1.8e-05 ± 1e-06 kPa and 1.9e-05 ± 1e-06 kPa | 3.9e-05 ± 2e-06 kPa and 3.7e-05 ± 2e-06 kPa and 4e-05 ± 2e-06 kPa | 9.3e-05 ± 5e-06 kPa [middle of 7 runs] | 0.000236 ± 1.2e-05 kPa [middle of 6 runs] | 0.000473 ± 2.4e-05 kPa [middle of 6 runs] | 0.000988 ± 4.9e-05 kPa [middle of 5 runs] | – | – | – | – | – | – | – | –
2 | c1ccc2c(c1)ccc1ccccc12 [phenanthrene] | – | – | – | – | – | – | 1.4e-05 ± 1e-06 kPa and 1.5e-05 ± 1e-06 kPa | 3.2e-05 ± 2e-06 kPa and 3.1e-05 ± 2e-06 kPa | 6.1e-05 ± 3e-06 kPa and 6.4e-05 ± 3e-06 kPa and 6.2e-05 ± 3e-06 kPa | 0.000118 ± 6e-06 kPa and 0.000119 ± 6e-06 kPa | 0.000208 ± 1e-05 kPa [middle of 6 runs] | 0.000341 ± 1.7e-05 kPa [middle of 5 runs] | 0.00059 ± 3e-05 kPa [middle of 6 runs] | 0.000959 ± 4.8e-05 kPa [middle of 6 runs]

Source: the NIST ThermoML archive (doi:10.1016/j.jct.2011.07.003)
